According to patent publication US11731965B2, “Tetrahydroprotoberberine compound, preparation method therefor and uses thereof, and pharmaceutical composition” (SHANGHAI INSTITUTE OF MATERIA MEDICA, CHINESE ACADEMY OF …, priority 2017, dated 2023):

How the values were obtained:
[1] = biological target: T1, human recombinant D2 receptor (Homo sapiens, UniProt P14416); assay: D2 antagonistic activity test (LANCE cAMP, antagonism of dopamine inhibition of cAMP production in HEK293 cells); format: cell-based; conditions: HEK293 cells expressing human recombinant D2 receptor; test concentration 0.1 nM to 10000 nM; read-out: D2 Antagonistic Activity (IC50, nmol/L)
T1 construct: expressed in transfected cells; host or cells: HEK293
T1 sequence (P14416 whole entry): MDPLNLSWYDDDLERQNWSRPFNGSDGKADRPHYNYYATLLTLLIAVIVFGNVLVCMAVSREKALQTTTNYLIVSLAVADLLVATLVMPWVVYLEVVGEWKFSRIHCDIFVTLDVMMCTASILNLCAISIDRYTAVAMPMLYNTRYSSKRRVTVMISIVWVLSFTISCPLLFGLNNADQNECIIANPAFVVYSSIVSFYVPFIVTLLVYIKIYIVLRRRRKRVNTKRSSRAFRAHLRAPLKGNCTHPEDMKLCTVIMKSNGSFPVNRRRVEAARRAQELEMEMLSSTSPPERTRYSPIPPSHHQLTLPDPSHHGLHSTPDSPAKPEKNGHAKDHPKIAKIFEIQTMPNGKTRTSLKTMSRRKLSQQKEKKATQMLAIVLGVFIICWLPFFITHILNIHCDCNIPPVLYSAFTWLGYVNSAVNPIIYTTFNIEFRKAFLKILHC
Method: LANCE™ cAMP 384 Kit (PerkinElmer, USA) was used to test the antagonism of the compound against the D1 receptor using the HEK293 cells expressing human recombinant D1 receptor. The D1 antagonism of the compound was evaluated by testing the antagonistic action of the compounds against dopamine on the induction of cAMP production in HEK293 cells. The cAMP concentration test was performed according to the method described in the kit instructions. The test concentration of the compound was 0.1 nM to 10000 nM. SCH23390 was used as a positive control. The IC50 was calculated by Excelfit software. The test results of some compounds were shown in Table 1. • 2) D2 antagonistic activity test LANCE™ cAMP 384 Kit (PerkinElmer, USA) was used to test the antagonism of the compound against the D2 receptor using the HEK293 cells expressing human recombinant D2 receptor. The D2 antagonism of the compound was evaluated by testing the antagonistic action of the compounds against dopamine on the inhibition of cAMP production in HEK293 cells. The cAMP concentration test was performed according to the method described in the kit instructions. The test concentration of the compound was 0.1 nM to 10000 nM. Risperidone was used as a positive control. The IC50 was calculated by Excelfit software. The test results of some compounds were shown in Table 1 (ND means the test was not performed).

[2] = test system: PCP-induced high spontaneous activity in mice; assay: PCP-induced high spontaneous activity test in mice; format: in vivo, Male ICR mice; conditions: oral, PCP-induced high spontaneous activity in mice
Method: PCP (phencylidine) was dissolved in physiological saline to prepare a 7 mg/kg solution. The test compound was formulated with a 0.5% CMC-Na solution to a solution with suitable concentration, ready-to-use. Male ICR mice were 18-22 g. Mice were randomly divided into a solvent control group, a model control group, a positive control group, and each test drug group during the test. There were 8 mice in each group. Mice in each group were given each test drug by gavage. 45 minutes after the test drug was administered, mice were injected with a PCP (7 mg/kg) solution intraperitoneally. The spontaneous, open field video analysis system was used to record the mouse movement trajectory within 45 min after administration of test drug or saline, and then the mouse movement trajectory within 75 min after PCP administration. Spontaneous, open field video analysis system was used to analyze the mouse's movement trajectory, and the total distance of the movement of the mice in each group was counted. The result was expressed as mean±SD. Results were analyzed by one-way analysis of variance.

[3] = biological target: T2, human recombinant D1 receptor (Homo sapiens, UniProt P21728); assay: D1 antagonistic activity test (LANCE cAMP, antagonism of dopamine-induced cAMP production in HEK293 cells); format: cell-based; conditions: HEK293 cells expressing human recombinant D1 receptor; test concentration 0.1 nM to 10000 nM; read-out: D1 Antagonistic Activity (IC50, nmol/L)
T2 construct: expressed in transfected cells; host or cells: HEK293
T2 sequence (P21728 whole entry): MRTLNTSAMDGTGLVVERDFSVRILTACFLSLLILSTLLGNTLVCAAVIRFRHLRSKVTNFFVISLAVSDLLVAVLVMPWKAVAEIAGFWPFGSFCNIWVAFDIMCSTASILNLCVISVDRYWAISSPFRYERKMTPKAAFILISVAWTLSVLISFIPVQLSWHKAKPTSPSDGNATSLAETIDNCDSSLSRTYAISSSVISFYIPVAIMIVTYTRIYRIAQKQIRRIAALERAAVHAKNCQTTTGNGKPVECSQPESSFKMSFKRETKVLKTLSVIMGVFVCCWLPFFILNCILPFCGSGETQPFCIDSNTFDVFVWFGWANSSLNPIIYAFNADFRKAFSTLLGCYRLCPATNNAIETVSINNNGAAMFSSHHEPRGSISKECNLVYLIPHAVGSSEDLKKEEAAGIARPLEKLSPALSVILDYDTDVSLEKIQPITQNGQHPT
Method: • 1) D1 antagonistic activity test
The D1 antagonism of the compound was evaluated by testing the antagonistic action of the compounds against dopamine on the induction of cAMP production in HEK293 cells. The cAMP concentration test was performed according to the method described in the kit instructions. The test concentration of the compound was 0.1 nM to 10000 nM. SCH23390 was used as a positive control. The IC50 was calculated by Excelfit software.

[4] = Metabolism of l-stepholidine (statement only, no method)
[5] = test system: insomnia induced by injection with 4-Chlorophenylalanine (PCPA) in rats; assay: Sedative and hypnotic effects, PCPA-induced insomnia model in rats treated with sodium pentobarbital; format: in vivo, Wistar rats; conditions: for sleep time: FIG. 2
Method: The sedative and hypnotic effects of Example 60 were evaluated using a model of insomnia induced by injection with 4-Chlorophenylalanine (PCPA) in rats.
Dosage and method of administration: PCPA was administered at a dose of 150 mg/kg. […] was administered by a single intraperitoneal injection at 72 hours before the experiment in all Wistar rats. The diazepam group (DI) was administered at a dose of 2 mg/kg and 4 mg/kg, a single intraperitoneal injection; the test drug group was administered at a dose of 1 mg/kg and 3 mg/kg, a single intragastric administration; sodium pentobarbital was administered at a dose of 25 mg/kg, a single intraperitoneal injection. The administration volume was 10 ml/kg. On the day of the test, the model group was given sodium pentobarbital 30 minutes after the same volume of physiological saline was given; the DI group was given sodium pentobarbital 30 minutes after DI was administered; the test drug group was given sodium pentobarbital 60 minutes after the drug was administered.lndex observation: After the administration of sodium pentobarbital, the rats' response was closely observed. The time from the administration to 1 minute after the righting reflex disappeared is the sleep latency. The time from 1 minute after the righting reflex disappeared to the point that the righting reflex returned is sleep time.

| IC50 [1] [nmol/L] | IC50 [3] [nmol/L] | metabolism [4] | SMILES | duration of effect / efficacy [2] | sleep time ([5]; 1 mg/kg single intragastric administration, sodium pentobarbital 25 mg/kg ip 60 minutes later) | sleep latency ([5]; 3 mg/kg single intragastric administration, sodium pentobarbital 25 mg/kg ip 60 minutes later, FIG. 1, *P<0.05 vs model group) | sleep time ([5]; 3 mg/kg single intragastric administration, sodium pentobarbital 25 mg/kg ip 60 minutes later) | hypnotic effect (overall) ([5]; PCPA-induced insomnia rats, 1 and 3 mg/kg intragastric) |
| --- | --- | --- | --- | --- | --- | --- | --- | --- |
| 37 | 7.7 | fast metabolism | COc1cc2c(cc1O)[C@@H]1Cc3ccc(O)c(OC)c3CN1CC2 [l-SPD, L-Stepholidine, reference compound] | short duration of effect |  |  |  |  |
| 6.2 | 525 |  | COc1cc2c(cc1NS(C)(=O)=O)[C@@H]1Cc3ccc(OC)c(OC)c3CN1CC2 [Example 60, (S)-2-methanesulfonylamino-3,9,10-trimethoxy-6,8,13,13a-tetrahydro-5H-dibenzo[a,g] quinolizine] |  | significantly prolong | significantly reduce | prolong | good hypnotic effect |
